Laboratory results published in US20180369244A1, “BTK Inhibitors to Treat Solid Tumors Through Modulation of the Tumor Microenvironment” (Acerta Pharma B.V., priority 2014, published 2018).

Tests used:
[1] = In vitro metabolism in hepatocytes with 14C-labeled Formula (II); format: in vitro ADME, mouse, rat, dog, rabbit, monkey, and human
Description: (§1) No unique human metabolite was identified. Preliminary evaluations of metabolism in the plasma, bile, and urine of rats, dogs, and monkeys indicated metabolic processes of oxidation, glutathione binding, and hydrolysis.

[2] = Glutathione binding and depletion in vitro; format: in vitro ADME
Description: as §1

B cell receptor = experiment: Whole blood B cell receptor signalling, CD69 on CD19+ B cells; format: cell-based; conditions: 2 h incubation, anti-human IgD 18 h
Procedure: Blood from four healthy donors was incubated for 2 hours with the compounds shown over a concentration range, and then stimulated with anti-human IgD [10 μg/mL] for 18 hours. The mean fluorescent intensity (MFI) of CD69 (and CD86, data not shown) on gated CD19+ B cells was measured by flow cytometry. MFI values were normalized so that 100% represents CD69 level in stimulated cells without inhibitor, while 0% represents the unstimulated/no drug condition. […]

CD8+ T cells = experiment: CD8+ T cell viability; format: cell-based; conditions: 4 days culture
Procedure: Total T cells were plated on anti-TCR and anti-CD28 coated wells in the presence of both BTK inhibitors. Neutral culture conditions were used that will not polarize T cells to a helper lineage. The cells are grown for 4 days and are then stained with anti-CD4, anti-CD8 and LIVE/DEAD reagent to determine if the drugs have selective effects on either the CD4^+ or CD8^+ cells. Statistical significance was calculated using the Mann Whitney T-test. […]

[3] = Cardiovascular function study in telemeterized beagle dogs; format: in vivo; conditions: single doses through 30 mg/kg
Description: Formula (II) was well tolerated in standard in vivo Good Laboratory Practices (GLP) studies of pharmacologic safety.

CD4+ T cells = experiment: Th17 and Treg development from CD4+ T cells; format: cell-based
Procedure: Enriched CD4^+ T cells are plated on 24-well culture dishes that have been precoated 2 hr with 250 μL anti-TCRβ (0.5 μg/mL) plus anti-CD28 (5 μg/mL) at 37° C. in PBS. The cells are then supplemented with media containing BTK inhibitors along with the skewing cytokines as indicated in the following. The Th17 and Treg cultures are grown for 4 days before analysis. The cells are maintained for an additional 3 days with skewing cytokines (Th17; 20 ng/mL IL-6, 0.5 ng/mL TGF-β, 5 μg/mL IL-4, 5 μg/mL IFN-γ and Treg; 0.5 ng/mL TGF-β, 5 μg/mL IL-4, 5 μg/mL IFN-γ) and are supplemented with IL2 as a growth factor.

NSCLC (KrasLA2) = experiment: KrasLA2 genetic NSCLC model; format: in vivo, mice
Description: The model is designed to have sporadic expression in single cells of G12D mutant Kras off its own promoter triggered by spontaneous intrachromosomal recombination. Johnson, et al. Nature 2001, 410, 1111-16. While the mutant Kras protein is expressed in a few cells in all tissues, tumor development is seen only in the lung at high penetrance.

CYP3A4 = CYP3A4 (Homo sapiens, UniProt P08684); experiment: Loss of parent drug as catalyzed by CYPs; format: in vitro ADME
Chain of CYP3A4 (P08684 whole entry): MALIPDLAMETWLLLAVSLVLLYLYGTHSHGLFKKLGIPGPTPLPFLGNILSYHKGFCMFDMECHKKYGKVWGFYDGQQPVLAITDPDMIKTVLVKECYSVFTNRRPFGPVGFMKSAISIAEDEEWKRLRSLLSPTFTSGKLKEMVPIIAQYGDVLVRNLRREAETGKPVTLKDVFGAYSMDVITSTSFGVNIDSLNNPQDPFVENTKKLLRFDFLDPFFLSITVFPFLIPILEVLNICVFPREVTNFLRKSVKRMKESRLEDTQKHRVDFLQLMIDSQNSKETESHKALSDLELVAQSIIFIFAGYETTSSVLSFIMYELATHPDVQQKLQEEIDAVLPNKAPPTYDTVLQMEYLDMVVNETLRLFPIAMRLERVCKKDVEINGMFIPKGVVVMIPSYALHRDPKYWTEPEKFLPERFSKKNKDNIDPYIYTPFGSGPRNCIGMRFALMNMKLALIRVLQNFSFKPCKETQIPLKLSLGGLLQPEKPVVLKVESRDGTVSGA
Description: as §1

[4] = system: human platelet-mediated thrombosis; conditions: mouse, in vivo
Procedure: Injury to the vessel wall of arterioles ([…] diameter) was performed using a pulsed nitrogen dye laser (440 nm, Photonic Instruments) applied through a 20× water-immersion Olympus objective (LUMPlanF1, 0.5 numerical aperature (NA)) of a Zeiss Axiotech vario microscope. […] The extent of thrombus formation was assessed for 2 minutes after injury and the area (μm^2) of coverage determined (Image IQ, Andor Technology).
The BTK inhibitor-treated human platelets were fluorescently labeled and infused continuously through a catheter inserted into the femoral artery.

[5] = system: KPC derived mouse pancreatic cancer cells; experiment: KPC derived pancreatic cancer cells injected into pancreas, Formula (II) and/or gemcitabine; format: in vivo; conditions: Formula (II) 15 mg/kg/BID oral; gemcitabine 15 mg/kg IV every 4 days for 3 injections
Procedure: In this study, KPC derived mouse pancreatic cancer cells (KrasGl2D;Trp53R^172H;Pdx1-Cre) were injected into the pancreases.
Single cell suspensions from tumor samples. Mouse tumor tissue was collected and stored in PBS/0.1% soybean trypsin inhibitor prior to enzymatic dissociation. Samples were finely minced with a scissors and mouse tissue was transferred into DMEM containing 1.0 mg/ml collagenase IV (Gibco), 0.1% soybean trypsin inhibitor, and 50 U/ml DNase (Roche) and incubated at 37 C for 30 min. with constant stirring while human tissue was digested in 2.0 mg/ml collagenase IV, 1.0 mg/ml hyluronidase, 0.1% soybean trypsin inhibitor, and 50 U/ml DNase for 45 minutes. Suspensions were filtered through a 100 micron filter and washed with FACS buffer (PBS/0.5% BSA/2.0 mM EDTA) prior to staining. Two million total cells were stained with antibodies as indicated. Intracellular detection of FoxP3 was achieved following permeabilization with BD Perm Buffer III (BD Biosciences) and eBioscience Fix/Perm respectively. Following surface staining, samples were acquired on a BD Fortessa and analyzed using FlowJo (Treestar) software.

NK cells = experiment: Whole blood NK cell degranulation/ADCC assay, MEC-1 cells opsonised with obinutuzumab; format: cell-based, human; conditions: 1 h pretreatment, obinutuzumab 1 μg/mL, 4 h
Procedure: Degranulation in whole blood was performed as follows. […] Exponentially growing cells were used. […] A white blood cell (WBC) count of whole blood was performed. […] 170 μL aliquots of unmanipulated whole blood were incubated with 10 μL BTK inhibitors or X-VIVO 15 medium for one hour into a plate. […] The samples were placed in a 5% CO2 incubator for 4 hours at 37° C.
After 4 hours, the samples were mixed gently and 50 μL aliquots were removed from each well and placed in fluorescence-activated cell sorting (FACS) test tubes. A 20 μL aliquot of anti-CD56-APC antibody and anti-CD107a-PE antibody was added. The samples were incubated for 20 minutes at room temperature in the dark. An aliquot of 2 mL of FACS lysing solution (BD Biosceinces) was added. The samples were again incubated for 5 minutes, and then centrifuged at 2000 rpm for 5 minutes. Supernatant was discarded and the cell pellet was resuspended in 500 μL of PBS. The samples were analyzed on the flow cytometer for CD107a^+ NK cells (CD56+).

[6] = system: GPVI platelet aggregation; experiment: GPVI platelet aggregation (convulxin-induced); format: cell-based, human
Procedure: GPVI platelet aggregation was measured for Formula (II) and Formula (X) (ibrutinib). Blood was obtained from untreated humans, and platelets were purified from […] by centrifugation. Cells were resuspended to a final concentration of […] in buffer containing 145 mmol/L NaCl, 10 mmol/L HEPES, 0.5 mmol/L Na2HPO4, 5 mmol/L KCl, 2 mmol/L MgCl2, 1 mmol/L CaCl2, and 0.1% glucose, at pH 7.4. Stock solutions of Convulxin (CVX) GPVI were prepared on the day of experimentation and added to platelet suspensions 5 minutes (37° C., 1200 rpm) before the induction of aggregation. Aggregation was assessed with a Chronolog Lumi-Aggregometer (model 540 VS; Chronolog, Havertown, Pa.) and permitted to proceed for 6 minutes after the addition of agonist. The results are reported as maximum percent change in light transmittance from baseline with platelet buffer used as a reference.
In FIG. 23, the results of CVX-induced (250 ng/mL) human platelet aggregation results before and 15 minutes after administration of the BTK inhibitors to 6 healthy individuals are shown.

## CC#CC(=O)N1CCC[C@H]1c1nc(-c2ccc(C(=O)Nc3ccccn3)cc2)c2c(N)nccn12 [Formula (II), (S)-4-(8-amino-3-(1-(but-2-ynoyl)pyrrolidin-2-yl)imidazo[1,5-a]pyrazin-1-yl)-N-(pyridin-2-yl)benzamide]
[1]
  metabolites in hepatocytes: two mono-oxidized metabolites and a glutathione conjugate
[2]
  glutathione binding and depletion: binds to glutathione but does not deplete glutathione
B cell receptor
  EC50: 0.0082 µM
CD8+ T cells
  CD8+ T cell viability: not observed
[3]
  body temperature, cardiovascular, ECG (including QT interval) parameters: no meaningful changes
CD4+ T cells
  Th17 and Treg development: no adverse effects on Th17 and Treg development
NSCLC (KrasLA2); 15 mg/kg
  number of tumors: fewer overall tumors
  tumor volumes versus vehicle: significant decrease in tumor volumes
NSCLC (KrasLA2); FIG. 62
  immunosuppressive tumor associated TAMs: significant reduction
NSCLC (KrasLA2); FIG. 63
  immunosuppressive tumor associated MDSCs: significant reduction
NSCLC (KrasLA2); FIG. 64
  immunosuppressive tumor associated Tregs: significant reduction
CYP3A4
  CYP metabolism: metabolized by CYP3A4
[4]
  effect on thrombus formation: does not interfere with thrombus formation
[5]
  reduction in tumor size: show efficacy alone
NK cells
  reduction of obinutuzumab-stimulated NK cell degranulation: minimal effect
[6]; FIG. 22 and FIG. 23
  GPVI platelet aggregation: does not
[6]; Homo sapiens, Platelet, FIG. 22
  IC50: 1.15 µM
